The subject of data set [1] is Plasmodium berghei. The experiment in a line: Potency index, ratio of bulaquine IC50 to compound IC50 for liver stage Plasmodium berghei infected in Huh7 cells. The format is functional, Huh-7.
For data set [2], the system named is Plasmodium berghei. The data set is described as follows: Antiplasmodial activity against liver stage Plasmodium berghei infected in Huh7 cells assessed as inhibition of parasite infection incubated for 1 hr prior to infection measured at 24 hrs by luciferase reporter gene assay. The format is functional, organism-based. The conditions noted are these: Huh-7, Liver.

For data set [3], the system named is Plasmodium falciparum. The experiment in a line: Antiplasmodial activity against chloroquine-resistant Plasmodium falciparum W2 infected in human erythrocytes after 48 hrs by flow cytometry. The conditions noted are these: W2, 48 h. It counts as functional, organism-based.
Data set [4] is described as follows: Cytotoxicity against HEK293T cells assessed as cell viability after 48 hrs by MTT assay. It counts as cell-based. As to conditions: Homo sapiens, HEK-293T. Background: Tetrazolium dyes change colour on reduction, which living cells bring about.
Data set [5] is described as follows: Cytotoxicity against human HuH7 cells infected with Plasmodium berghei assessed as cell proliferation at 1 to 10 uM by Alamar blue assay. It counts as cell-based. The conditions noted are these: huh-7, 10 µM. On the technique in general: The colour change of resazurin is a common sign of viable cells or microbes.
Data set [6] has as its system Plasmodium falciparum. The data set is described as follows: Antiplasmodial activity against chloroquine-resistant Plasmodium falciparum W2 infected in human erythrocytes after 24 hrs by [3H]-hypoxanthine incorporation assay. The format is functional, organism-based.

Each structure is given as a SMILES string. pIC50: −log10 of the molar value. Some results are limits rather than exact numbers.

As to `CCCCOc1c(NCCCC(C)Nc2cc(OC)cc3cccnc23)c(=O)c1=O` (configuration not stated), the “Ratio IC50” value with Plasmodium berghei [1] is 4.3. Further, the pIC50 in the data set with Plasmodium berghei [2] was 5.89.
Taken in the same sequence, the figures for `COc1cc(NC(C)CCCNc2c(NCCCC(C)Nc3cc(OC)cc4cccnc34)c(=O)c2=O)c2ncccc2c1` (configuration not stated) were 4.3 and 5.89.
As to `CCCCOc1c(NCCNc2cc(OC)cc3cccnc23)c(=O)c1=O`, the values for the pIC50 (with Plasmodium falciparum [3]; in data set [4]) were 5.07 and under 4.00, respectively. Moreover, the Activity result in data set [5] is given as “Non-toxic”.
Take `CCCCOc1c(Nc2cc(OC)cc3cccnc23)c(=O)c1=O`: in the data set on Plasmodium falciparum [3], the pIC50 is under 5.00. Further, the Activity result in data set [5] is listed as “Non-toxic”.
For the molecule `COc1cc(NC(C)CCCN/C(C)=C2/CCOC2=O)c2ncccc2c1` (configuration not stated), the pIC50 is 5.00 with Plasmodium berghei [2] and 5.80 in the data set with Plasmodium falciparum [6].
In the data set with Plasmodium falciparum [3], `CCCCNc1c(NCCCC(C)Nc2cc(OC)cc3cccnc23)c(=O)c1=O` (configuration not stated) had a pIC50 of under 5.00. In addition, the Activity result in data set [5] was “Non-toxic”.
In the case of `CCCCOc1c(NCCC(C)Nc2cc(OC)cc3cccnc23)c(=O)c1=O` (configuration not stated), the pIC50 in the data set on Plasmodium falciparum [3] was 5.29; in data set [4] it was under 4.00. The Activity entry in data set [5] is reported as “Non-toxic”.
On to `CCCCOc1c(NCCCCCNc2cc(OC)cc3cccnc23)c(=O)c1=O`, for which the results for the pIC50 (with Plasmodium falciparum [3]; in the data set with Plasmodium berghei [2]; in data set [4]) were under 5.00, 5.66 and under 4.00, respectively. In the data set with Plasmodium berghei [1], the “Ratio IC50” value is 4.3. Also, the Activity result in data set [5] is given as “Non-toxic”.
On the same counts, the results for `CCCCOc1c(NCCCNc2cc(OC)cc3cccnc23)c(=O)c1=O` are 5.29, 5.74, under 4.00, 4.3 and “Non-toxic”.
Turning to `CCOc1c(NCCCC(C)Nc2cc(OC)cc3cccnc23)c(=O)c1=O` (configuration not stated), the pIC50 with Plasmodium falciparum [3] is 5.14; in data set [4], under 4.00. In data set [5], the Activity result is recorded as “Non-toxic”.
The molecule `COc1cc(NC(C)CCCNc2c(OC)c(=O)c2=O)c2ncccc2c1` (configuration not stated) gave a pIC50 in the data set with Plasmodium falciparum [3] of under 5.00. Also, the Activity result in data set [5] was “Non-toxic”.
Turning to `COc1cc(NC(C)CCCN)c2ncccc2c1` (configuration not stated) [PRIMAQUINE], the pIC50 in the data set with Plasmodium berghei [2] was 5.02.

The term pIC50 denotes the IC50 on a negative log10 scale, so that one unit is a factor of ten.

The values are drawn from ChEMBL document CHEMBL3769361, “Novel squaramides with in vitro liver stage antiplasmodial activity” (Bioorg Med Chem, 2016).
